Measurements published in US8785630B2, “Insecticidal triazines and pyrimidines” (Vestaron Corporation, priority 2011, dated 2014).

test system: beet armyworm (Spodoptera exigua); assay: Insecticidal test for beet armyworm, treated diet surface; assay type: in vivo; conditions: 100 μg/cm^2 on diet surface, first instar larvae, 32 insects per treatment, observations 24, 48 and 96 hours
Description: The compounds identified in Table 8 were prepared according to the previous methods and were tested against beet armyworm and corn earworm as follows:
Insecticidal Test for Beet Armyworm (Spodoptera exigua).
To prepare the test solution, the test compound was Formulated at 3499 ppm in solution as 5 mg compound/1.429 mL of 9 parts acetone: 1 part deionized H2O and vortexed to homogenize. 50 μL of the 3499 ppm (equivalent to 100 μg/cm^2 dose on diet surface area) test solution was pipetted upon the surface of 1 mL of solidified cool Southland Products Incorporated Beet Armyworm Diet (201 Stuart Island Road Lake Village, Ark. 71653) using an Eppendorf Repeater Plus with a 1 mL pipette tip. All pipetting of treatments was done in a Labconco Hood. Thirty minutes were allowed for the acetone to evaporate leaving a dose of 100 μg/cm^2 on the surface of the artificial diet. Two 24 hour old first instar Beet Armyworm (Spodoptera Exigua) larvae were placed in each well of the 128 well Bio-BA 128 Bioassay trays (CD International, Pitman, N.J., 08071, USA) using a #0 fine camel hair paint brush. Bioassay trays were sectioned into treatment groups of 8 with 16 replicates per treatment group (32 insects per treatment). Trays containing the treated diet and larvae were covered with a Bio-CV-16 cover (CD International, Pitman, N.J., 08071, USA) and then placed on a rack under florescent lights at 27° C., 20% relative humidity (RH) in the room, and 16 hr light: 8 hr dark for 96 hours. Observations were made 24, 48 and 96 hours after treatment and infestation. The number of insects dead were counted out of the 32 insects total per treatment and the results are given in a table as a percent mortality at a dose of 100 μg/cm^2. When finished, the tray was moved to the −5° C. freezer and left for 24 hr to insure mortality of the remaining S. exigua. After 24 hours, dispose of entire tray into waste bin.
Keys to the table: Mortality refers to activity against beet army worm (Spodoptera exigua) as defined above at the concentration of 100 μg/cm^2 (A=76-100% mortality, B=51-75% mortality, C=26-50% mortality and D=0-25% mortality).

Compared with `Fc1cccc(Cl)c1-c1nc(NCCN2CCOCC2)nc(NN=Cc2ccc(OC(F)(F)F)cc2)n1` [Example 24, 4-(2-chloro-6-fluorophenyl)-N-(2-morpholinoethyl)-6-(2-(4-(trifluoromethoxy)benzylidene)hydrazinyl)-1,3,5-triazin-2-amine], `NCCNc1nc(NN=Cc2ccc(OC(F)(F)F)cc2)nc(-c2c(F)cccc2Cl)n1` [Example 28, N1-(4-(2-chloro-6-fluorophenyl)-6-(2-(4-(trifluoromethoxy)benzylidene)hydrazinyl)-1,3,5-triazin-2-yl)ethane-1,2-diamine] is lower in mortality at 100 µg/cm2: 76 to 100% for the first, 0 to 25% for the second.

`CN(C)Nc1nc(NN=Cc2ccc(OC(F)(F)F)cc2)nc(-c2c(F)cccc2Cl)n1` [Example 25, 2-(2-chloro-6-fluorophenyl)-4-(2,2-dimethylhydrazinyl)-6-(2-(4-(trifluoromethoxy)benzylidene)hydrazinyl)-1,3,5-triazine] and `CNc1nc(NN=Cc2ccc(OC(F)(F)F)cc2)nc(-c2c(F)cccc2Cl)n1` [Example 43, 4-(2-chloro-6-fluorophenyl)-N-methyl-6-(2-(4-(trifluoromethoxy)benzylidene)hydrazinyl)-1,3,5-triazin-2-amine] fall in the same range of mortality at 100 µg/cm2: 76 to 100% for the first, 76 to 100% for the second.

First: Fc1cccc(Cl)c1-c1nc(NCC2CCOC2)nc(NN=Cc2ccc(OC(F)(F)F)cc2)n1 (stereo not shown) [Example 26, 4-(2-chloro-6-fluorophenyl)-N-((tetrahydrofuran-3-yl)methyl)-6-(2-(4-(trifluoromethoxy)benzylidene)hydrazinyl)-1,3,5-triazin-2-amine]
Second: Fc1cccc(Cl)c1-c1nc(NN=Cc2ccc(OC(F)(F)F)cc2)nc(Nc2ccnc(Cl)c2)n1 [Example 40, 4-(2-chloro-6-fluorophenyl)-N-(2-chloropyridin-4-yl)-6-(2-(4-(trifluoromethoxy)benzylidene)hydrazinyl)-1,3,5-triazin-2-amine]
The mortality at 100 µg/cm2 of the first is lower: 0 to 25% for the first, 26 to 50% for the second.

`FC(F)(F)Oc1ccc(C=NNc2nc(Nc3ccc(Cl)cc3)nc(-c3c(Cl)cc(Cl)cc3Cl)n2)cc1` [Example 27, N-(4-chlorophenyl)-4-(2,4,6-trichlorophenyl)-6-(2-(4-(trifluoromethoxy)benzylidene)hydrazinyl)-1,3,5-triazin-2-amine] and `FC(F)(F)Oc1ccc(C=NNc2nc(Nc3ccc(Cl)cc3)nc(-c3ccc(Cl)c(Cl)c3)n2)cc1` [Example 32, N-(4-chlorophenyl)-4-(3,4-dichlorophenyl)-6-(2-(4-(trifluoromethoxy)benzylidene)hydrazinyl)-1,3,5-triazin-2-amine] fall in the same range of mortality at 100 µg/cm2: 0 to 25% for the first, 0 to 25% for the second.

Compared with `COc1cccc(-c2nc(NN=Cc3ccc(OC(F)(F)F)cc3)nc(Nc3ccc(Cl)cc3)n2)c1` [Example 29, N-(4-chlorophenyl)-4-(3-methoxyphenyl)-6-(2-(4-(trifluoromethoxy)benzylidene)hydrazinyl)-1,3,5-triazin-2-amine], `Fc1cccc(-c2nc(NN=Cc3ccc(OC(F)(F)F)cc3)nc(Nc3ccc(Cl)cc3)n2)c1` [Example 31, N-(4-chlorophenyl)-4-(3-fluorophenyl)-6-(2-(4-(trifluoromethoxy)benzylidene)hydrazinyl)-1,3,5-triazin-2-amine] is higher in mortality at 100 µg/cm2: 0 to 25% for the first, 51 to 75% for the second.

`COc1ccc(-c2nc(NN=Cc3ccc(OC(F)(F)F)cc3)nc(Nc3ccc(Cl)cc3)n2)cc1` [Example 30, N-(4-chlorophenyl)-4-(4-methoxyphenyl)-6-(2-(4-(trifluoromethoxy)benzylidene)hydrazinyl)-1,3,5-triazin-2-amine] and `Cc1ccc(-c2nc(NN=Cc3ccc(OC(F)(F)F)cc3)nc(Nc3ccc(Cl)cc3)n2)cc1` [Example 33, N-(4-chlorophenyl)-4-(p-tolyl)-6-(2-(4-(trifluoromethoxy)benzylidene)hydrazinyl)-1,3,5-triazin-2-amine] fall in the same range of mortality at 100 µg/cm2: 0 to 25% for the first, 0 to 25% for the second.

`Fc1ccc(Nc2nc(NN=Cc3ccc(OC(F)(F)F)cc3)nc(-c3c(F)cccc3Cl)n2)cc1Cl` [Example 34, N-(3-chloro-4-fluorophenyl)-4-(2-chloro-6-fluorophenyl)-6-(2-(4-(trifluoromethoxy)benzylidene)hydrazinyl)-1,3,5-triazin-2-amine] and `Fc1cccc(Cl)c1-c1nc(NN=Cc2ccc(OC(F)(F)F)cc2)nc(Nc2ccc(Cl)c(Cl)c2)n1` [Example 38, 4-(2-chloro-6-fluorophenyl)-N-(3,4-dichlorophenyl)-6-(2-(4-(trifluoromethoxy)benzylidene)hydrazinyl)-1,3,5-triazin-2-amine] fall in the same range of mortality at 100 µg/cm2: 76 to 100% for the first, 76 to 100% for the second.

`Fc1ccc(Nc2nc(NN=Cc3ccc(OC(F)(F)F)cc3)nc(-c3c(F)cccc3Cl)n2)cc1C(F)(F)F` [Example 35, 4-(2-chloro-6-fluorophenyl)-N-(4-fluoro-3-(trifluoromethyl)phenyl)-6-(2-(4-(trifluoromethoxy)benzylidene)hydrazinyl)-1,3,5-triazin-2-amine] and `Fc1cccc(Cl)c1-c1nc(NN=Cc2ccc(OC(F)(F)F)cc2)nc(Nc2cc(Cl)cc(Cl)c2)n1` [Example 39, 4-(2-chloro-6-fluorophenyl)-N-(3,5-dichlorophenyl)-6-(2-(4-(trifluoromethoxy)benzylidene)hydrazinyl)-1,3,5-triazin-2-amine] fall in the same range of mortality at 100 µg/cm2: 76 to 100% for the first, 76 to 100% for the second.

`Fc1cccc(Cl)c1-c1nc(NN=Cc2ccc(OC(F)(F)C(F)Cl)cc2)nc(Nc2ccc(Cl)nc2)n1` (stereo not shown) [Example 36, 4-(2-(4-(2-chloro-1,1,2-trifluoroethoxy)benzylidene)hydrazinyl)-6-(2-chloro-6-fluorophenyl)-N-(6-chloropyridin-3-yl)-1,3,5-triazin-2-amine] and `Fc1cccc(Cl)c1-c1nc(NN=Cc2ccc(OC(F)(F)C(F)Cl)cc2)nc(Nc2ccc(Cl)cc2)n1` (stereo not shown) [Example 37, 4-(2-(4-(2-chloro-1,1,2-trifluoroethoxy)benzylidene)hydrazinyl)-6-(2-chloro-6-fluorophenyl)-N-(4-chlorophenyl)-1,3,5-triazin-2-amine] fall in the same range of mortality at 100 µg/cm2: 76 to 100% for the first, 76 to 100% for the second.

First: Fc1cccc(Cl)c1-c1nc(NN=Cc2ccc(OC(F)(F)F)cc2)nc(Nc2ccccc2Cl)n1 [Example 41, 4-(2-chloro-6-fluorophenyl)-N-(2-chlorophenyl)-6-(2-(4-(trifluoromethoxy)benzylidene)hydrazinyl)-1,3,5-triazin-2-amine]
Second: Fc1cccc(Cl)c1-c1nc(NN=Cc2ccc(OC(F)(F)F)cc2)nc(Nc2ccc(Cl)cn2)n1 [Example 45, 4-(2-chloro-6-fluorophenyl)-N-(5-chloropyridin-2-yl)-6-(2-(4-(trifluoromethoxy)benzylidene)hydrazinyl)-1,3,5-triazin-2-amine]
The mortality at 100 µg/cm2 of the first is higher: 76 to 100% for the first, 26 to 50% for the second.

`Fc1ccccc1-c1nc(NN=Cc2ccc(OC(F)(F)F)cc2)nc(Nc2ccc(Cl)nc2)n1` [Example 42, N-(6-chloropyridin-3-yl)-4-(2-fluorophenyl)-6-(2-(4-(trifluoromethoxy)benzylidene)hydrazinyl)-1,3,5-triazin-2-amine] and `Fc1ccccc1-c1nc(NN=Cc2ccc(OC(F)(F)F)cc2)nc(Nc2ccc(Cl)cc2)n1` [Example 44, N-(4-chlorophenyl)-4-(2-fluorophenyl)-6-(2-(4-(trifluoromethoxy)benzylidene)hydrazinyl)-1,3,5-triazin-2-amine] fall in the same range of mortality at 100 µg/cm2: 76 to 100% for the first, 76 to 100% for the second.

First: FC(F)(F)Oc1ccc(C=NNc2cc(Nc3ccc(Cl)cc3)nc(-c3ccccc3)n2)cc1 [Example 46, N-(4-chlorophenyl)-2-phenyl-6-(2-(4-(trifluoromethoxy)benzylidene)hydrazinyl)pyrimidin-4-amine]
Second: FC(F)(F)Oc1ccc(C=NNc2nc(Nc3ccc(Cl)nc3)cc(-c3ccccc3)n2)cc1 [Example 47, N-(6-chloropyridin-3-yl)-6-phenyl-2-(2-(4-(trifluoromethoxy)benzylidene)hydrazinyl)pyrimidin-4-amine]
The mortality at 100 µg/cm2 of the first is higher: 76 to 100% for the first, 0 to 25% for the second.

`Fc1cccc(Cl)c1C=NNc1nc(Nc2ccc(Cl)cc2)nc(-c2ccc(OC(F)(F)F)cc2)n1` [Example 48, 4-(2-(2-chloro-6-fluorobenzylidene)hydrazinyl)-N-(4-chlorophenyl)-6-(4-(trifluoromethoxy)phenyl)-1,3,5-triazin-2-amine] and `Fc1cccc(Cl)c1-c1nc(NN=Cc2ccc(C(F)(F)F)cc2)nc(Nc2ccc(Cl)nc2)n1` [Example 51, 4-(2-chloro-6-fluorophenyl)-N-(6-chloropyridin-3-yl)-6-(2-(4-(trifluoromethyl)benzylidene)hydrazinyl)-1,3,5-triazin-2-amine] fall in the same range of mortality at 100 µg/cm2: 76 to 100% for the first, 76 to 100% for the second.

`FC(F)(F)Oc1ccc(C=NNc2nc(Nc3ccc(Cl)cn3)cc(-c3ccccc3)n2)cc1` [Example 49, N-(5-chloropyridin-2-yl)-6-phenyl-2-(2-(4-(trifluoromethoxy)benzylidene)hydrazinyl)pyrimidin-4-amine] and `Oc1ccc(C=NNc2nc(Nc3ccc(Cl)nc3)nc(-c3c(F)cccc3Cl)n2)cc1` [Example 50] fall in the same range of mortality at 100 µg/cm2: 0 to 25% for the first, 0 to 25% for the second.
